Bounds are passed on as bounds.

For experiment [1], the system named is RKO p27 or p21 induced (arrested) colon adenocarcinoma cells. In words: Alamar Blue cell viability assay, RKO p27 or p21 induced (arrested). As to conditions: Homo sapiens, RKOp27, Table B2, cells arrested by Ponasterone A, 72 hours, read-out: −log EC50 RKO p27 or p21 induced (arrested) (converted). Format: cell-based. On the procedure: (§1) To determine the cell cycle specific mode of action, subclones of RKO colon adenocarcinoma cells (RKOp21 or RKOp27 as described by Schmidt et al. in Oncogene 19, 2423-2429; 2000) are seeded into 96 well flat bottom plates at a density of 16000 cells per well in a volume of 50 μl per well in DMEM growth medium with 10% FCS containing 10 μM Ponasterone A. 24 hours after seeding the 50 μl each of the compound dilutions in DMEM medium are added into each well of the 96-well plate. Each compound dilution is tested as triplicates. Wells containing untreated control cells are filled with 50 μl DMEM medium containing 1% DMSO. The cells are then incubated with the substances for 72 hours at 37° C. in a humidified atmosphere containing 5% carbon dioxide. To determine the viability of the cells, 10 μl of an Alamar Blue solution (Biosource) are added and the fluorescence is measured at an extinction of 544 nm and an emission of 590 nm. For the calculation of the cell viability the emission value from untreated cells is set as 100% viability and the emission rates of treated cells are set in relation to the values of untreated cells. Viabilities are expressed as % values. The Graphpad Prism program (GraphPad Software, Inc) is used for the calculation of EC50 values out of the obtained dose-response curves. Viability is compared of proliferating cells grown in the absence of the inducer Ponasterone A, versus viability of cells arrested by the expression of ectopic p27Kip1 induced by Ponasterone A.
(§2) Representative values for anti-proliferation/cytotoxicity [measured as −log EC50 (mol/l)] determined in the aforementioned assays follow from the following tables B1, B2 and B3, in which the numbers of the compounds correspond to the numbers of the examples.
A general note: Resazurin is reduced to fluorescent resorufin, in cell work by metabolically active cells.

Experiment [2] relates to RKO p27 or p21 uninduced (proliferating) colon adenocarcinoma cells. The experiment in a line: Alamar Blue cell viability assay, RKO p27 or p21 uninduced (proliferating). Format: cell-based. As to conditions: Homo sapiens, RKOp27, 72 h, Table B2, anti-proliferative/cytotoxic activity, read-out: −log EC50 RKO p27 or p21 uninduced (proliferating) (converted). On the procedure: The anti-proliferative/cytotoxic activity of the compounds described herein can be tested on subclones of RKO human colon adenocarcinoma cells (Schmidt et al., Oncogene 19, 2423-2429; 2000) using the Alamar Blue cell viability assay (described in O'Brien et al. Eur J Biochem 267, 5421-5426, 2000). The compounds are dissolved as 10 mM solutions in DMSO and subsequently diluted in semi-logarithmic steps. DMSO dilutions are further diluted 1:100 into Dulbecco's modified Eagle's medium (DMEM) containing 10% fetal calf serum to a final concentration twice as much as the final concentration in the test. RKO subclones are seeded into 96 well flat bottom plates at a density of 4000 cells per well in a volume of 50 μl per well. 24 hours after seeding the 50 μl each of the compound dilutions in DMEM medium are added into each well of the 96 well plate. Each compound dilution is tested as triplicates. Wells containing untreated control cells are filled with 50 μl DMEM medium containing 1% DMSO. The cells are then incubated with the substances for 72 hours at 37° C. in a humidified atmosphere containing 5% carbon dioxide. To determine the viability of the cells, 10 μl of an Alamar Blue solution (Biosource) are added and the fluorescence is measured at an extinction of 544 nm and an emission of 590 nm. For the calculation of the cell viability the emission value from untreated cells is set as 100% viability and the emission rates of treated cells are set in relation to the values of untreated cells. Viabilities are expressed as % values. The Graphpad Prism program is used for the calculation of EC50 values for anti-proliferative/cytotoxic activity out of the obtained dose-response curves.
as §1, §2

As usually defined, the EC50 is the concentration that produces a half-maximal response. Turning to `CC1CCN(CCN2C(=O)N3[C@H](c4cccc(O)c4)c4[nH]c5ccc(Cl)cc5c4C[C@@]3(C)C2=O)CC1` (racemic) [Example 98, (3aSR,10RS)-6-Chloro-10-(3-hydroxy-phenyl)-3a-methyl-2-[2-(4-methyl-piperidin-1-yl)-ethyl]-3a,4,9,10-tetrahydro-2,9,10a-triaza-cyclopenta[b]fluorene-1,3-dione], the EC50 is not below 3160 nM in experiment [1] and not above 39.8 nM in experiment [2].

Consider `COc1ccc2[nH]c3c(c2c1)C[C@@]1(C)C(=O)N(CCCNCCO)C(=O)N1[C@@H]3c1cccc(O)c1` (racemic) [Example 145, (3aSR,10RS)-2-[3-(2-Hydroxy-ethylamino)-propyl]-10-(3-hydroxy-phenyl)-6-methoxy-3a-methyl-3a,4,9,10-tetrahydro-2,9,10a-triaza-cyclopenta[b]fluorene-1,3-dione], for which the values for the EC50 in experiment [1] and in experiment [2] were not below 316 nM and not above 39.8 nM, respectively.

On to `COc1ccc2[nH]c3c(c2c1)C[C@@]1(C)C(=O)N(CCNCC(F)F)C(=O)N1[C@@H]3c1cccc(O)c1` (racemic) [Example 73, (3aSR,10RS)-2-[2-(2,2-Difluoro-ethylamino)-ethyl]-10-(3-hydroxy-phenyl)-6-methoxy-3a-methyl-3a,4,9,10-tetrahydro-2,9,10a-triaza-cyclopenta[b]fluorene-1,3-dione], for which the EC50 in experiment [1] was not below 3160 nM; in experiment [2] it was 39.8 to 251 nM.

Turning to `C[C@@]12Cc3c([nH]c4ccc(Cl)cc34)[C@@H](c3cccc(O)c3)N1C(=O)N(CCNC1CC1)C2=O` (racemic) [Example 102, (3aSR,10RS)-6-Chloro-2-(2-cyclopropylamino-ethyl)-10-(3-hydroxy-phenyl)-3a-methyl-3a,4,9,10-tetrahydro-2,9,10a-triaza-cyclopenta[b]fluorene-1,3-dione], the EC50 in experiment [1] is not below 3160 nM; in experiment [2], not above 39.8 nM.

As to `COc1ccc2[nH]c3c(c2c1)C[C@@]1(C)C(=O)N(CCNCCO)C(=O)N1[C@@H]3c1cccc(O)c1` (racemic) [Example 82, (3aSR,10RS)-2-[2-(2-Hydroxy-ethylamino)-ethyl]-10-(3-hydroxy-phenyl)-6-methoxy-3a-methyl-3a,4,9,10-tetrahydro-2,9,10a-triaza-cyclopenta[b]fluorene-1,3-dione], the EC50 in experiment [1] is not below 3160 nM; in experiment [2] it was not above 39.8 nM.

As to `COc1ccc2[nH]c3c(c2c1)C[C@@]1(C)C(=O)N(CCCCl)C(=O)N1[C@@H]3c1cccc(O)c1` (racemic) [Example 55, (3aSR,10RS)-2-(3-Chloro-propyl)-10-(3-hydroxy-phenyl)-6-methoxy-3a-methyl-3a,4,9,10-tetrahydro-2,9,10a-triaza-cyclopenta[b]fluorene-1,3-dione], the results for the EC50 in experiment [1] and in experiment [2] were not below 316 nM and 39.8 to 251 nM, respectively.

Turning to `CCNCCCN1C(=O)N2[C@H](c3cccc(O)c3)c3[nH]c4ccc(Cl)cc4c3C[C@@]2(C)C1=O` (racemic) [Example 131, (3aSR,10RS)-6-Chloro-2-(3-ethylamino-propyl)-10-(3-hydroxy-phenyl)-3a-methyl-3a,4,9,10-tetrahydro-2,9,10a-triaza-cyclopenta[b]fluorene-1,3-dione], the EC50 in experiment [1] was not below 316 nM; in experiment [2], not above 39.8 nM.

As to `CCN(CCO)CCN1C(=O)N2[C@H](c3cccc(O)c3)c3[nH]c4ccc(Cl)cc4c3C[C@@]2(C)C1=O` (racemic) [Example 124, (3aSR,10RS)-6-Chloro-2-{2-[ethyl-(2-hydroxy-ethyl)-amino]-ethyl}-10-(3-hydroxy-phenyl)-3a-methyl-3a,4,9,10-tetrahydro-2,9,10a-triaza-cyclopenta[b]fluorene-1,3-dione], the EC50 in experiment [1] is not below 316 nM; in experiment [2] it was not above 39.8 nM.

With `CN(CCO)CCCN1C(=O)N2[C@H](c3cccc(O)c3)c3[nH]c4ccc(Cl)cc4c3C[C@@]2(C)C1=O` (racemic) [Example 132, (3aSR,10RS)-6-Chloro-2-{3-[(2-hydroxy-ethyl)-methyl-amino]-propyl}-10-(3-hydroxy-phenyl)-3a-methyl-3a,4,9,10-tetrahydro-2,9,10a-triaza-cyclopenta[b]fluorene-1,3-dione], the EC50 in experiment [1] is not below 316 nM; in experiment [2] it was not above 39.8 nM.

As for `COc1ccc2[nH]c3c(c2c1)C[C@@]1(C)C(=O)N(CCCN(C)CCO)C(=O)N1[C@@H]3c1cccc(O)c1` (racemic) [Example 143, (3aSR,10RS)-2-{3[(2-Hydroxy-ethyl)-methyl-amino]-propyl}-10-(3-hydroxy-phenyl)-6-methoxy-3a-methyl-3a,4,9,10-tetrahydro-2,9,10a-triaza-cyclopenta[b]fluorene-1,3-dione], the EC50 is not below 316 nM in experiment [1] and not above 39.8 nM in experiment [2].

As for `COc1ccc2[nH]c3c(c2c1)C[C@@]1(C)C(=O)N(CCCNC2CCC2)C(=O)N1[C@@H]3c1cccc(O)c1` (racemic) [Example 86, (3aSR,10RS)-2-(3-Cyclobutylamino-propyl)-10-(3-hydroxy-phenyl)-6-methoxy-3a-methyl-3a,4,9,10-tetrahydro-2,9,10a-triaza-cyclopenta[b]fluorene-1,3-dione], the EC50 was not below 3160 nM in experiment [1] and not above 39.8 nM in experiment [2].

As for `C=CCNCCCN1C(=O)N2[C@H](c3cccc(O)c3)c3[nH]c4ccc(OC)cc4c3C[C@@]2(C)C1=O` (racemic) [Example 146, (3aSR,10RS)-2-(3-Allylamino-propyl)-10-(3-hydroxy-phenyl)-6-methoxy-3a-methyl-3a,4,9,10-tetrahydro-2,9,10a-triaza-cyclopenta[b]fluorene-1,3-dione], the EC50 in experiment [1] was not below 316 nM; in experiment [2], not above 39.8 nM.

With `C=CCNCCCN1C(=O)N2[C@H](c3cccc(O)c3)c3[nH]c4ccc(Cl)cc4c3C[C@@]2(C)C1=O` (racemic) [Example 139, (3aSR,10RS)-2-(3-Allylamino-propyl)-6-chloro-10-(3-hydroxy-phenyl)-3a-methyl-3a,4,9,10-tetrahydro-2,9,10a-triaza-cyclopenta[b]fluorene-1,3-dione], the EC50 was not below 3160 nM in experiment [1] and not above 39.8 nM in experiment [2].

For the compound `CC(=O)N1CCN(CCN2C(=O)N3[C@H](c4cccc(O)c4)c4[nH]c5ccc(Cl)cc5c4C[C@@]3(C)C2=O)CC1` (racemic) [Example 114, (3aSR,10RS)-2-[2-(4-Acetyl-piperazin-1-yl)-ethyl]-6-chloro-10-(3-hydroxy-phenyl)-3a-methyl-3a,4,9,10-tetrahydro-2,9,10a-triaza-cyclopenta[b]fluorene-1,3-dione], the EC50 in experiment [1] is not below 316 nM; in experiment [2], not above 39.8 nM.

On to `COc1ccc2[nH]c3c(c2c1)C[C@@]1(C)C(=O)N(CCN2CCCCCC2)C(=O)N1[C@@H]3c1cccc(O)c1` (racemic) [Example 74, (3aSR,10RS)-2-(2-Azepan-1-yl-ethyl)-10-(3-hydroxy-phenyl)-6-methoxy-3a-methyl-3a,4,9,10-tetrahydro-2,9,10a-triaza-cyclopenta[b]fluorene-1,3-dione], for which the EC50 in experiment [1] is not below 3160 nM; in experiment [2], not above 39.8 nM.

As to `CCN(CCOC)CCN1C(=O)N2[C@H](c3cccc(O)c3)c3[nH]c4ccc(OC)cc4c3C[C@@]2(C)C1=O` (racemic) [Example 79, (3aSR,10RS)-2-[2-[Ethyl-(2-methoxy-ethyl)-amino]-ethyl}-10-(3-hydroxy-phenyl)-6-methoxy-3a-methyl-3a,4,9,10-tetrahydro-2,9,10a-triaza-cyclopenta[b]fluorene-1,3-dione], the EC50 in experiment [1] is not below 3160 nM; in experiment [2] it was not above 39.8 nM.

As for `C[C@@]12Cc3c([nH]c4ccc(Cl)cc34)[C@@H](c3cccc(O)c3)N1C(=O)N(CCN1CCCCC1)C2=O` (racemic) [Example 101, (3aSR,10RS)-6-Chloro-10-(3-hydroxy-phenyl)-3a-methyl-2-(2-piperidin-1-yl-ethyl)-3a,4,9,10-tetrahydro-2,9,10a-triaza-cyclopenta[b]fluorene-1,3-dione], the EC50 was not below 3160 nM in experiment [1] and not above 39.8 nM in experiment [2].

Source of the values: patent US8530493B2, “Indolopyridines as Eg5 kinesin modulators” (4SC AG, priority 2006, dated 2013).
